# Experimental data taken from patent publication US20250339426A1, “GCN2 MODULATOR FOR TREATING CANCER” (HIBERCELL, INC., priority 2022, published 2025).
# How the values were obtained:
# ATF4 = ATF4 activity assay (HEK293-ATF4-Luc, luciferase); assay type: cell-based; conditions: 12.5 nM Halofuginone, 6 hours, FIG. 3
# Description: HEK293-ATF4-Luc cells were with culture medium 1.5e^5 cells/mL and 25 μL of cell suspension was added into each well of 384-well cell culture plate (Corning, CLS3570-50EA) as designated and transferred into 37° C.-5% CO2 incubator (Thermo Scientific) overnight for cell attachment. HC-7366 was serially diluted to 11 concentrations by 3-fold dilution in DMSO and 25 nL of stock was plated into cell plate by Echo550 (Labcyte, Echo550), then incubated for 30 minutes at 37° C. After HC-7366 treatment, cells were treated with either DMSO or 12.5 nM Halofuginone to activate GCN2 for 6 hours. After 6 hours, 25 μL of One-Glo reagent (Promega, cat #: E6120) was added into each well to be detected (at 1:1 to culture medium). Then the plates were placed at room temperature for 10 min followed by luciferase luminescence reading on EnVision (PerkinElmer). The data were analyzed by XLfit (v5.3.1.3), equation 201.
# [1] = tested on: NCI-H1975 (human non-small cell lung cancer cells); assay: In vivo tumor growth inhibition, NCI-H1975 xenograft; parameters: species or system Athymic Nude-Foxn1nu mice; conditions: HC-7366 3 mg/kg twice daily oral
# Description: NCI-H1975 (human non-small cell lung cancer cells): Female 7-8 weeks old Athymic Nude-Foxn1nu mice were inoculated subcutaneously on the right flank with NCI-H1975 tumor cells (2.5×10^6) in 0.1 ml of RPMI1640 medium without serum for tumor development. Single agent HC-7366 was dosed at 3 mg/kg, osimertinib at 2.5 mg/kg and dacomitinib at 15 mg/kg. HC-7366 was combined with either osimertinib or dacomitinib. The vehicle for the groups was 0.5% methyl cellulose. The treatments were started when the mean tumor size reached approximately 205 mm^3 at Day 22 post inoculation and continued until end of study. HC-7366 was given twice daily by oral gavage whereas osimertinib or dacomitinib were administered once a day by oral gavage (FIGS. 131 and 133).
# [formula] • 2.2.2 Tumor Measurements: The measurement of tumor size was conducted three times weekly with a caliper and recorded. The tumor volume (mm^3) was estimated using the formula: TV=a×b^2/2, where “a” and “b” is long and short diameters of a tumor, respectively. Tumor volume was calculated using the formula [tumor volume (mm^3)=π/6×length×width^2).
# Regression was calculated using the formula=100×ΔT/T initial, if ΔT<0. Animals with 0 mm^3 tumor volume (no measurable tumor) for three consecutive measurements were considered as complete responders and animals with 50% tumor regressions were partial responders.
compound,measurement,setting,value
"CNC(=O)c1ncn2cc(-c3c(F)ccc(NS(=O)(=O)c4cc(Cl)cnc4OC)c3F)ncc12 [HC-7366, 6-(3-((5-chloro-2-methoxypyridine)-3-sulfonamido)-2,6-difluorophenyl)-N-methylimidazo[1,5-a]pyrazine-1-carboxamide]","ATF4 activity, cells treated with HC-7366 and Halofuginone",ATF4,GCN2 inhibitory effect
same,TGI,[1],59%
